Assay results published in patent US20050131045A1, “Novel crystal forms of ondansetron, processes for their preparation, pharmaceutical, compositions containing the novel forms and methods for treating nausea using them” (priority 2002, published 2005).

Assay: Solubility in C1-C3 alcohols
Format: physicochemical
Details: methanol, ethanol, propan-1-ol, propan-2-ol; room temperature
Experimental: Ondansetron Form B may be prepared by crystallizing ondansetron from a solution in a C1-C3 alcohol, in particular, methanol, ethanol, propan-1-ol, propan-2-ol and mixtures thereof. Ondansetron is dissolved in the C1-C3 alcohol, preferably in an amount sufficient to produce from about a 50 mM to about a 300 mM solution, more preferably from about an 85 mM to about a 150 mM solution. […] Consequently, it may be necessary to heat the mixture in order to fully dissolve it. Preferably, the mixture is refluxed until the mixture becomes a clear solution. The solution is preferably free of solid ondansetron that could potentially seed the mixture causing precipitation of ondansetron in a crystalline form other than Form B or co-crystallization of Form B with another form. Preferably, the Form B obtained by crystallization from the alcohol solution contains less than or equal to about 5% other crystalline forms of ondansetron, more preferably Form B contains less than or equal to about 1% other crystalline forms of ondansetron.

Which “solubility in C1-C3 alcohols” value does the source give for Cc1nccn1CC1CCc2c(c3ccccc3n2C)C1=O (racemic) [Ondansetron, (±) 1,2,3,9-Tetrahydro-9-methyl-3-[2-methyl-1H-imidazol-1-yl)methyl]-4H-carbazol-4-one] here?
The value was “limited solubility”.
